Key:
A549 cells = test: Combination with bortezomib, A549 cell confluency (Incucyte); type: cell-based; conditions: 1 nM alone, two independent experiments
Procedure: A549 cells were seeded in log phase (e.g., at 40-60% confluency) in a well plate. Drug treatments were: no drug treatment, DMSO, bortezomib at 50 nM, 10 nM, 5 nM, 2 nM or 1 nM, Example No. 13 at 10 nM, and bortezomib 50 nM, 10 nM, 5 nM, 2 nM or 1 nM combined with Example No. 13 at 10 nM. The DMSO concentrations were kept constant (including DMSO control) to control for any confounding DMSO toxicity.
Drug addition protocol: On day 1, cells were seeded at 60,000 cells/well, and incubated for 24 hours to allow adherence. On day 2, media was aspirated and replaced with 500 μl of the drug media preparations described below in correlating wells. The plates were placed in Incucyte for 7-14 days, and cell confluency was measured every 2 hours. […]

TNK1 [1] = target: T1, TNK1 (Homo sapiens, UniProt Q13470); test: TNK1 NanoBRET target engagement assay (HEK293); type: cell-based; design: host or cells: HEK293; conditions: HEK293 cells, 2 hours; read-out: NanoBRET TE Assay (HEK293) IC50
T1 sequence (Q13470 1-666): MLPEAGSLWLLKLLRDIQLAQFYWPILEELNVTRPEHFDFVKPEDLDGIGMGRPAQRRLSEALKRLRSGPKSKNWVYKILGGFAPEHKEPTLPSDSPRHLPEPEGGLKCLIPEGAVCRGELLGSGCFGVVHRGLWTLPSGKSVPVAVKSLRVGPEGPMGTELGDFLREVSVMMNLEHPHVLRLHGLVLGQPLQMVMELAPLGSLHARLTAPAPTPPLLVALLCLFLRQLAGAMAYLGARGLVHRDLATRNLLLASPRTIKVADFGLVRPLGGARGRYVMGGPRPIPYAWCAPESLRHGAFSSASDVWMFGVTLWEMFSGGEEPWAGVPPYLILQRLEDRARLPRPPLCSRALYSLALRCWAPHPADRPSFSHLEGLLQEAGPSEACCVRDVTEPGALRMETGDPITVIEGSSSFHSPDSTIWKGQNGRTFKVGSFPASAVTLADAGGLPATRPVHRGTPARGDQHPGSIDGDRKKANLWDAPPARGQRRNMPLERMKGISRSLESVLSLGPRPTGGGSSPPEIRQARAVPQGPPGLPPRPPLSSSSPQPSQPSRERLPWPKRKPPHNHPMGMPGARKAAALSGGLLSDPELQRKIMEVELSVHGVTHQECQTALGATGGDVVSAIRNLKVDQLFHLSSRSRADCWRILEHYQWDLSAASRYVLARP
Excerpt: The NanoBRET target engagement (TE) assay (Promega, Madison, Wis.) enables the interrogation of the displacement of a tracer compound in the active site of a recombinant kinase by a test compound in the intracellular setting. The assay enables simultaneous testing of permeability, solubility, and kinase inhibition, and tests the specific interaction of test agents with a kinase of interest, here, TNK1. The assay is based on the principle of bioluminescence resonance energy transfer (BRET). In the assay, a plasmid-encoded, luciferase-tagged form of TNK1 is transfected into cells. A tracer compound is tagged with a fluorophore that fluoresces when bound to the TNK1 protein. Readout is luminescence and fluorescence. Test compounds show activity by displacing the tracer, thus disrupting BRET.
Methods: The TNK1 NanoBRET TE assays were performed according to the manufacturer's protocol. Briefly, Nanoluc-TNK1 Fusion Vector (Promega, Madison, Wis., Cat. No. NV2181) was transfected into HEK293 cells in bulk (8×10^6 cells in a T175 flask). Up to 30 hours post-transfection, cells were harvested by trypsinization, resuspended at a concentration of 2×10^5 cells/mL, and seeded in 96-well plates at 85 μL/well. A test compound and the K5 tracer were added to each well, and the cells were incubated for 2 hours. Luminescence ([…]) and fluorescence ([…]) were measured to determine a BRET ratio. IC50 values were determined from the BRET ratios using the Graphpad Prism software (GraphPad Software, San Diego, Calif.).

TNK1 [2] = target: T1, TNK1; test: RBC HotSpot Kinase Assay; type: biochemical; design: purchased Reaction Biology Corp., Malvern, Pa; conditions: ATP 10 μM
Procedure: The RBC HotSpot Kinase assay (Reaction Biology Corp., Malvern, Pa.) was used to evaluate the ability of test compounds to modulate (e.g., inhibit) the enzymatic activity of human TNK1 (UniProt Accession No. Q13470) in the following reaction:
Reagent: Base Reaction buffer; 20 mM Hepes (pH 7.5), 10 mM MgCl2, 1 mM EGTA, 0.02% Brij35, 0.02 mg/ml BSA, 0.1 mM Na3VO4, 2 mM DTT, 1% DMSO. Required cofactors were added individually to each kinase reaction.
Compound handling: Test compounds were dissolved in 100% DMSO to specific concentration. The serial dilution was conducted by Integra Viaflo Assist in DMSO.
1. Prepared substrate (peptide substrate, poly[Glu:Tyr] (4:1), 0.2 mg/ml; ATP 10 μM) in freshly prepared Reaction Buffer;
2. Delivered any required cofactors to the substrate solution;
3. Delivered kinase (TNK1) into the substrate solution and gently mixed;
4. Delivered compounds in 100% DMSO into the kinase reaction mixture by Acoustic technology (Echo550; nanoliter range), incubated for 20 minutes at room temperature;
5. Delivered ^33P-ATP (specific activity 10 μCi/μl) into the reaction mixture to initiate the reaction;
6. Incubated for 2 hours at room temperature;
7. Detected radioactivity by filter-binding method;
8. Kinase activity data were expressed as the percent remaining kinase activity in test samples compared to vehicle (dimethyl sulfoxide) reactions. IC50 values and curve fits were obtained using Prism (GraphPad Software).

[3] = system: phospho-STAT5 in L540 cells; test: In vitro pSTAT5 assay (ELISA) in L540 cells; type: cell-based; conditions: Homo sapiens, L-540, 24 hours, normalized to cell viability, read-out: P-STAT5 Assay IC50
Procedure: The L540 cell line harbors a truncating mutation in the C-terminal regulatory region of the protein. As a consequence, TNK1 in L540 cells is constitutively active in phosphorylating key proteins, including STAT5. In TNK1 wild-type conditions (e.g., K562 CML cells), STAT5 phosphorylation is achieved in a TNK1-independent fashion. As such, reductions in phospho-STAT5 signal specific to the L540 cells are a good readout of TNK1 inhibitor function.
Methods: The in vitro pSTAT5 assay was performed with STAT5 AB (pY964/699) SimpleStep ELISA Kit (Abcam No. ab176656) according to the manufacturer's protocol. Briefly, L540 cells were grown in RPMI1640 media under standard culture conditions (10% FBS with penicillin/streptomycin). To assess test compound effects, cells were plated in 96 well plates (250,000 cells/mL) and allowed to grow overnight. Cells were subsequently treated with varying concentrations of test compound for 24 hours, before being harvested and interrogated with the STAT5 AB (pY964/699) SimpleStep ELISA Kit according to the manufacturer's protocol. Phospho-STAT5 signal was normalized to cell viability, as assessed by the CellTiter-Glo assay (Promega, Cat. No. G7570) on treated cells. TNK1 inhibitor IC50s were determined using Graphpad Prism software on normalized phospho-STAT5 measurements.

## CC(C)C[C@H](NC(=O)[C@H](Cc1ccccc1)NC(=O)c1cnccn1)B(O)O [Bortezomib, bortezomib, reference compound]
A549 cells
  cell growth inhibition, alone: no inhibition of cell growth

## CN1CCN(c2c(Cl)cc(Nc3ncc(Cl)c(Nc4cccnc4N(C)C)n3)c3ccccc23)CC1 [compound 7, 5-chloro-N^2-(3-chloro-4-(4-methylpiperazin-1-yl)naphthalen-1-yl)-N^4-(2-(dimethylamino)pyridin-3-yl)pyrimidine-2,4-diamine]
TNK1 [1]
  IC50: > 1000 nM
TNK1 [2]
  IC50: < 5 nM
[3]
  IC50: 5 to 50 nM

## COc1cc(N2CCN(C)CC2)c(C)cc1Nc1ncc(Cl)c(Nc2cccnc2N2CCCC2)n1 [compound 8, 5-chloro-N^2-(2-methoxy-5-methyl-4-(4-methylpiperazin-1-yl)phenyl)-N^4-(2-(pyrrolidin-1-yl)pyridin-3-yl)pyrimidine-2,4-diamine]
TNK1 [1]
  IC50: 150 to 1000 nM
TNK1 [2]
  IC50: < 5 nM
[3]
  IC50: 5 to 50 nM

## COc1cc(N2CCN(C)CC2)c(C)cc1Nc1ncc(I)c(Nc2cccnc2N(C)C)n1 [compound 11, N^4-(2-(dimethylamino)pyridin-3-yl)-5-iodo-N^2-(2-methoxy-5-methyl-4-(4-methylpiperazin-1-yl)phenyl)pyrimidine-2,4-diamine]
TNK1 [1]
  IC50: 150 to 1000 nM
TNK1 [2]
  IC50: < 5 nM
[3]
  IC50: 5 to 50 nM

— patent US11529350B2, “Tyrosine kinase non-receptor 1 (TNK1) inhibitors and uses thereof” (Sumitomo Pharma Oncology, Inc., priority 2019, dated 2022)
